Test results reported in ChEMBL document CHEMBL6121052, “Design of ROS-Triggered Sesquiterpene Lactone SC Prodrugs as TrxR1 Covalent Inhibitors for the Treatment of Non-Small Cell Lung Cancer” (J Med Chem, 2025).
Activity calls are given as the source filed them. No cut-off for these calls is given here.

Key:
[1] = system: NCI-H1299; test: Induction of morphological changes in human NCI-H1299 cells assessed as decrease in cell density upto 10 uM by AO/EB staining based analysis; format: functional
[2] = system: NCI-H1299; test: Antiproliferative activity against human NCI-H1299 cells assessed as decrease in EdU positive cells at 4 uM measured after 14 days by Hoechst 33342 staining based fluorescence microscopic analysis; format: functional, cell-based; settings: time 14.0 day
[3] = system: NCI-H1299; test: Induction of apoptosis in human NCI-H1299 cells assessed as increase in Bax expression at upto 10 uM incubated for 24 hrs by Western blot analysis; format: functional, cell-based
[4] = system: A549; test: Induction of apoptosis in human A549 cells assessed as necrotic cells at 5 uM measured after 48 hrs by Annexin V/FITC staining based flow cytometric analysis (reference value: 2.52 %); format: functional
[5] = system: NCI-H1299; test: Induction of apoptosis in human NCI-H1299 cells assessed as viable cells at 10 uM measured after 48 hrs by Annexin V/FITC staining based flow cytometric analysis (reference value: 96.3%); format: functional; settings: read-out: Activity
[6] = system: A549; test: Induction of apoptosis in human A549 cells assessed as early apoptotic cells at 2.5 uM measured after 48 hrs by Annexin V/FITC staining based flow cytometric analysis (reference value: 1.31 %); format: functional
[7] = system: NCI-H1299; test: Inhibition of colony formation in human NCI-H1299 cells assessed as reduction in colony number at 4 uM incubated for 14 days by crystal violet staining based analysis; format: functional, cell-based; settings: time 14.0 day
[8] = system: A549; test: Downregulation of TrxR1 level in human A549 cells upto 10 uM incubated for 24 hrs by Western blot analysis; format: functional, cell-based
[9] = system: A549; test: Antiproliferative activity against human A549 cells assessed as decrease in EdU positive cells at 4 uM measured after 14 days by Hoechst 33342 staining based fluorescence microscopic analysis; format: functional, cell-based; settings: time 14.0 day
[10] = system: A549; test: Induction of apoptosis in human A549 cells assessed as chromatin condensation upto 10 uM by Hoechst 33258 staining based fluorescence microscopic analysis; format: functional, cell-based
[11] = Toxicity in BALB/c mouse assessed as change in viscera index at 5 to 10 mg/kg, po administered every 2 days for 2 weeks; format: organism-based; settings: in vivo, 336 h, dose 5-10 mg/kg
[12] = Volume of distribution at steady state in male Sprague-Dawley rat at 10 mg/kg, iv measured upto 24 hrs by LC-MS/MS analysis; format: ADME, organism-based; settings: in vivo, read-out: Vdss
[13] = system: A549; test: Induction of ferroptosis in human A549 cells assessed as effect on GPX4 protein expression at 10 uM incubated for 24 hrs by Western blotting analysis; format: functional, cell-based
[14] = system: NCI-H1299; test: Antitumor activity against human NCI-H1299 cells xenografted in BALB/c mouse assessed as decrease in GPX4 expression at 5 to 10 mg/kg, po administered every 2 days for 2 weeks by IHC analysis; format: functional, organism-based; settings: dose 5-10 mg/kg
[15] = MRT (0 to t) in male Sprague-Dawley rat at 10 mg/kg, iv measured upto 24 hrs by LC-MS/MS analysis; format: ADME, organism-based; settings: in vivo
[16] = system: NCI-H1299; test: Antitumor activity against human NCI-H1299 cells xenografted in BALB/c mouse assessed as reduction in tumor volume at 5 to 10 mg/kg, po administered every 2 days for 2 weeks; format: functional, organism-based; settings: dose 5-10 mg/kg
[17] = system: A549; test: Inhibition of colony formation in human A549 cells assessed as reduction in colony number at 4 uM incubated for 14 days by crystal violet staining based analysis; format: functional, cell-based; settings: time 14.0 day
[18] = system: NCI-H1299; test: Induction of ferroptosis in human NCI-H1299 cells assessed as effect on SLC7A11 protein expression at 10 uM incubated for 24 hrs by Western blotting analysis; format: functional, cell-based
[19] = system: NCI-H1299; test: Induction of apoptosis in human NCI-H1299 cells assessed as late apoptotic cells at 10 uM measured after 48 hrs by Annexin V/FITC staining based flow cytometric analysis (reference value: 1.96%); format: functional
[20] = Tmax in male Sprague-Dawley rat at 10 mg/kg, iv measured upto 24 hrs by LC-MS/MS analysis; format: ADME, organism-based; settings: in vivo
[21] = system: A549; test: Induction of apoptosis in human A549 cells assessed as early apoptotic cells at 5 uM measured after 48 hrs by Annexin V/FITC staining based flow cytometric analysis (reference value: 1.31 %); format: functional
[22] = Half life in male Sprague-Dawley rat at 10 mg/kg, iv measured upto 24 hrs by LC-MS/MS analysis; format: ADME, organism-based; settings: in vivo
[23] = system: A549; test: Induction of apoptosis in human A549 cells assessed as early apoptotic cells at 10 uM measured after 48 hrs by Annexin V/FITC staining based flow cytometric analysis (reference value: 1.31 %); format: functional
[24] = system: A549; test: Induction of intracellular ROS generation in human A549 cells upto 10 uM by DCFH-DA probe based fluorescence assay; format: functional, cell-based
[25] = system: NCI-H1299; test: Induction of apoptosis in human NCI-H1299 cells assessed as necrotic cells at 5 uM measured after 48 hrs by Annexin V/FITC staining based flow cytometric analysis (reference value: 0.62%); format: functional
[26] = Toxicity in BALB/c mouse assessed as heart damage at 5 to 10 mg/kg, po administered every 2 days for 2 weeks by H and E staining based analysis; format: organism-based; settings: in vivo, 336 h, dose 5-10 mg/kg
[27] = AUC (0 to t) in male Sprague-Dawley rat at 10 mg/kg, iv measured upto 24 hrs by LC-MS/MS analysis; format: ADME, organism-based; settings: in vivo
[28] = system: A549; test: Induction of apoptosis in human A549 cells assessed as increase in green fluorescence intensity upto 10 uM by AO/EB staining based fluorescence microscopic analysis; format: functional, cell-based
[29] = Toxicity in BALB/c mouse assessed as liver damage at 5 to 10 mg/kg, po administered every 2 days for 2 weeks by H and E staining based analysis; format: organism-based; settings: in vivo, 336 h, dose 5-10 mg/kg
[30] = system: A549; test: Cytotoxicity against human A549 cells assessed as cell viability incubated for 48 hrs by MTT assay; format: functional, cell-based; settings: A549, 48 h
[31] = system: NCI-H1299; test: Antitumor activity against human NCI-H1299 cells xenografted in BALB/c mouse assessed as decrease in TrxR1 expression at 5 to 10 mg/kg, po administered every 2 days for 2 weeks by IHC analysis; format: functional, organism-based; settings: dose 5-10 mg/kg
[32] = system: NCI-H1299; test: Induction of apoptosis in human NCI-H1299 cells assessed as early apoptotic cells at 2.5 uM measured after 48 hrs by Annexin V/FITC staining based flow cytometric analysis (reference value: 1.14 %); format: functional
[33] = system: NCI-H1299; test: Induction of apoptosis in human NCI-H1299 cells assessed as early apoptotic cells at 10 uM measured after 48 hrs by Annexin V/FITC staining based flow cytometric analysis (reference value: 1.14 %); format: functional
[34] = system: NCI-H1299; test: Induction of apoptosis in human NCI-H1299 cells assessed as decrease in BCl-2 expression at upto 10 uM incubated for 24 hrs by Western blot analysis; format: functional, cell-based
[35] = system: NCI-H1299; test: Induction of apoptosis in human NCI-H1299 cells assessed as early apoptotic cells at 5 uM measured after 48 hrs by Annexin V/FITC staining based flow cytometric analysis (reference value: 1.14 %); format: functional
[36] = system: NCI-H1299; test: Cytotoxicity against human NCI-H1299 cells assessed as cell viability incubated for 48 hrs by MTT assay; format: functional, cell-based; settings: NCI-H1299, 48 h
[37] = system: A549; test: Induction of apoptosis in human A549 cells assessed as necrotic cells at 2.5 uM measured after 48 hrs by Annexin V/FITC staining based flow cytometric analysis (reference value: 2.52 %); format: functional

## CCCNC(=O)O[C@@H]1/C=C(\C)C[C@H]2C=C(C[C@@H]3OC(=O)[C@H](CSC(=S)N(C)C)[C@H]31)C(=O)O2
[1]
  Activity: Active
[2]
  Activity: Active
[3]
  Activity: Active
[4]
  Activity: 3.5%
[5]
  viability at 10 µM: 68.6%
[6]
  Activity: 1.56%
[7]
  inhibition: Active
[8]
  Activity: Active
[9]
  Activity: Active
[10]
  Activity: Active
[11]
  Activity: Non-toxic
[12]
  Vd: 57.6 L/kg
[13]
  Activity: Active
[14]
  Activity: Active
[15]
  MRT last at 24 h: 4.15 h
[16]
  Activity: Active
[17]
  inhibition: Active
[18]
  Activity: Active
[19]
  Activity: 21.9%
[20]
  Tmax: 1.98 min
[21]
  Activity: 2.47%
[22]
  half-life: 3.85 h
[23]
  Activity: 3.68%
[24]
  Activity: Active
[25]
  Activity: 1.45%
[26]
  Activity: Non-toxic
[27]
  AUC(0-t) at 24 h: 997 ng·h/mL
[28]
  Activity: Active
[29]
  Activity: Non-toxic
[30]
  IC50: 1.74 µM
[31]
  Activity: Active
[32]
  Activity: 1.67%
[33]
  Activity: 8.46%
[34]
  Activity: Active
[35]
  Activity: 10.2%
[36]
  IC50: 4.68 µM
[37]
  Activity: 4.09%
